Results: ChEMBL document CHEMBL4706683 (J Med Chem, 2021)

Tests used:
[1] = target: Histone deacetylase 3/Nuclear receptor corepressor 2 (HDAC3/NCoR2) (Homo sapiens, UniProt O15379); experiment: Inhibition of human C-terminal His-tagged HDAC3/N-terminal GST-tagged NCOR2 expressed in baculovirus infected Sf9 cells using Ac-peptide as substrate preincubated for 15 mins followed by substrate and trypsin addition and further incubated for 60 mins
[2] = Cmax in Balb/c mouse at 10 mg/kg, po administered as single dose measured upto 24 hrs by LC-MS/MS analysis; type: ADME, organism-based; parameters: route oral, dose 10 mg/kg, time <=24; conditions: in vivo
Plasmodium falciparum = experiment: Antimalarial activity against synchronized schizont stage transgenic Plasmodium falciparum 3D7 with C-terminal glmS-fused HDAC1 knockdown assessed as parasite growth inhibition pretreated with glucosamine followed by compound treatment and incubated for 4 hrs followed by compound washout for thrice and subsequent culturing for 68 hrs by SYBR Green 1 staining based analysis; type: functional, organism-based
[3] = AUC (0 to t) in Balb/c mouse at 5 mg/kg, ip administered as single dose measured upto 24 hrs by LC-MS/MS analysis; type: ADME, organism-based; parameters: route intraperitoneal, dose 5 mg/kg, time <=24; conditions: in vivo

Chain of Histone deacetylase 3/Nuclear receptor corepressor 2 (HDAC3/NCoR2) (O15379 whole entry): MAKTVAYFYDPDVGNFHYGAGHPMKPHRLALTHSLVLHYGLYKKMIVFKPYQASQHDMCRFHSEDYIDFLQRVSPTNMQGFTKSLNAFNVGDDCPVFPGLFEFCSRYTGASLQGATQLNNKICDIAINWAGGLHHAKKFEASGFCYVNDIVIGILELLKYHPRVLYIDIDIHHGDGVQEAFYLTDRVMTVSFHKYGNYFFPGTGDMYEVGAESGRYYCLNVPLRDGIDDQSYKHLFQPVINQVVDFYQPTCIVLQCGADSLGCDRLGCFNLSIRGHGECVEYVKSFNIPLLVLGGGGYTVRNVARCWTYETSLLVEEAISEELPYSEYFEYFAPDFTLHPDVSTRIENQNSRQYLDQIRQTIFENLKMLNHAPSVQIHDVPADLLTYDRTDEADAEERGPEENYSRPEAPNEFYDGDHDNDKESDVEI
Chain of Histone deacetylase 3/Nuclear receptor corepressor 2 (HDAC3/NCoR2) (Q9Y618 whole entry, further chain): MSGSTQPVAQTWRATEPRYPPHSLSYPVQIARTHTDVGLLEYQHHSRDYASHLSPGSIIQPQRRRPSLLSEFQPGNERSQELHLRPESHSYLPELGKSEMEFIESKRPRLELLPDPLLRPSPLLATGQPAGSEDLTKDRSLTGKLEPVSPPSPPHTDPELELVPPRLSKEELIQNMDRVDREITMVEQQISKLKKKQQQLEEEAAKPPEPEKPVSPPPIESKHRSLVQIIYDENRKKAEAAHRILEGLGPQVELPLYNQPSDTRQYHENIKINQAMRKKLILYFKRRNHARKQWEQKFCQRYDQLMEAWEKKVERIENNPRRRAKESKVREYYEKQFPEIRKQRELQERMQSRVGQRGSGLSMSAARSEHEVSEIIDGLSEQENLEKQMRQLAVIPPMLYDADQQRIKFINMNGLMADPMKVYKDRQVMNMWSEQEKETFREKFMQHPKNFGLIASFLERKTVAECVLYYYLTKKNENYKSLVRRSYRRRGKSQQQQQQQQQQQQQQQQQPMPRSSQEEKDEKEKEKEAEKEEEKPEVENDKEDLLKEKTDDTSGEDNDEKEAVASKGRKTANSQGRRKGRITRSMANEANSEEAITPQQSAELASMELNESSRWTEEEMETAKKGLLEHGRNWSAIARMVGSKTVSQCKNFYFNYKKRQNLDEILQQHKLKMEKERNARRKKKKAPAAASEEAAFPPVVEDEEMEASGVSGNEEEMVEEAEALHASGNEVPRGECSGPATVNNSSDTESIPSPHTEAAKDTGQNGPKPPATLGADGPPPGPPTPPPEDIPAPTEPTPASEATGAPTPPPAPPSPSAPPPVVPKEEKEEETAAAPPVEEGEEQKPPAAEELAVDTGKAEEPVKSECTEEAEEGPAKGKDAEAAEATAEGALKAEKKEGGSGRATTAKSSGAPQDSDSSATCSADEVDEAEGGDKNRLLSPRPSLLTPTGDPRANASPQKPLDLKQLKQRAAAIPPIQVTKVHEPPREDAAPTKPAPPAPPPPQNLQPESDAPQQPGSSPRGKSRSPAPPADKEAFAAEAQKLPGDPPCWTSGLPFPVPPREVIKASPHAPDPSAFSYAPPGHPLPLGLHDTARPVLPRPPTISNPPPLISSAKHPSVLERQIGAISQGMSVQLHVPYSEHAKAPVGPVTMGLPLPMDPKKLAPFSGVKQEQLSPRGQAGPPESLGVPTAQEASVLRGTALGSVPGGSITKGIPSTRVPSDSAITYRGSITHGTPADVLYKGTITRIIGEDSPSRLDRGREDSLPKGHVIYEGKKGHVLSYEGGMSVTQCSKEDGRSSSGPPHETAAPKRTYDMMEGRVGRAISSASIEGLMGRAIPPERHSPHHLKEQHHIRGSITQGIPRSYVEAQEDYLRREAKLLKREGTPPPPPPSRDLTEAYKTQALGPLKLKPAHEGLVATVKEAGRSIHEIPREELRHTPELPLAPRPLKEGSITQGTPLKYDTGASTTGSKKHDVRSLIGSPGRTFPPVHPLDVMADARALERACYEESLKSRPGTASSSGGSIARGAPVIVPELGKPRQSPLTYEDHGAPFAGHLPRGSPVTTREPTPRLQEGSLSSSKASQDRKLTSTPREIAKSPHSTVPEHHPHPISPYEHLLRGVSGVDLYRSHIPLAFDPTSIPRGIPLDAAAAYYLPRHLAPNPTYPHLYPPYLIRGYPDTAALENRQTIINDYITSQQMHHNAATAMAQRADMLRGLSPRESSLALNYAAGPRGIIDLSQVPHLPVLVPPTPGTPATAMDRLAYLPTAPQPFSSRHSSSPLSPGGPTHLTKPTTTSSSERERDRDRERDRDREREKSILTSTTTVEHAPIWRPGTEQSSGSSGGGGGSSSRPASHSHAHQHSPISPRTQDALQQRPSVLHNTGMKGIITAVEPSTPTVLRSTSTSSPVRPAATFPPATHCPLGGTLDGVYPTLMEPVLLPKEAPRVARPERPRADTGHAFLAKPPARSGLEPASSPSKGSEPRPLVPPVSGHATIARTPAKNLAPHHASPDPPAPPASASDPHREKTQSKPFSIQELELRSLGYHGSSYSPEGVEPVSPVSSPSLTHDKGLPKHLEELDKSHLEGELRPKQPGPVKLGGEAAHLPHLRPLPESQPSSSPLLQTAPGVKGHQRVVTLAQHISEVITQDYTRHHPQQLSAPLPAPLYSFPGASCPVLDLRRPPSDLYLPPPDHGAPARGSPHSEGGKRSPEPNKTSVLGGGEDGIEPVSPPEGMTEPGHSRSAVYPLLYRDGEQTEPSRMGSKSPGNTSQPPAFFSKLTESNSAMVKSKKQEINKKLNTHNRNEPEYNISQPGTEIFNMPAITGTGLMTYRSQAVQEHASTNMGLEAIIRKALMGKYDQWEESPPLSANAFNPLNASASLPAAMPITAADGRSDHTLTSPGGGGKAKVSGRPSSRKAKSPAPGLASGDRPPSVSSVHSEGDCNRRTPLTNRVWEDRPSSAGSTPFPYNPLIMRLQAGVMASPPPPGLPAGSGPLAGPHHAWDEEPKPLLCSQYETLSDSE

With Cl.O=C(NO)c1cnc(N2CCC3(CCN(Cc4c[nH]c5ccccc45)C3)CC2)nc1 the IC50 [1] was 3 nM, the Cmax [2] was 2.49 ng/mL and the IC50 (Plasmodium falciparum) was 4.3 nM. For the same compound, the AUC(0-t) at 24 h [3] was 81.9 ng·h/mL.
